Assays:
[1] = test system: acetylcholine bromide-induced abdominal constriction response; assay: Mouse acetylcholine bromide-induced abdominal constriction assay (MAIT); assay type: in vivo; settings: po, 0.5 h, 150 μmole/Kg p.o., acetylcholine bromide 5.5 mg/kg i.p. 30 min later
Description: The mouse acetylcholine-induced abdominal constriction assay, as described by Collier et al. in […]., 32: 295-310, 1968 with minor modifications, was used to assess analgesic potency of the compounds of formula (I). The test drugs or appropriate vehicles were administered orally (p.o.) and 30 min later the animal received an intraperitoneal (i.p.) injection of 5.5 mg/kg acetylcholine bromide (Matheson, Coleman and Bell, East Rutherford, N.J.). The mice were then placed in groups of three into glass bell jars and observed for a ten min observation period for the occurrence of an abdominal constriction response (defined as a wave of constriction and elongation passing caudally along the abdominal wall, accompanied by a twisting of the trunk and followed by extension of the hind limbs). For compounds of the present invention, the percent inhibition of this response to a nociceptive stimulus (equated to % analgesia) was calculated as follows: [formula]

δ-opioid receptor [2] = biological target: T1, δ-opioid receptor (Homo sapiens, UniProt P41143); assay: Scintillation screening assay for δ-opioid receptor binding ([3H]bremazocine); settings: cloned human receptor in CHO cell membranes, [3H]bremazocine 2.4 nM, read-out: δ-Opioid Receptor Binding (% Inhibition), % I @ 25 μM
T1 construct: purchased Receptor Biology, Baltimore, Md; host or cells: CHO cells (membranes)
T1 sequence (P41143 whole entry): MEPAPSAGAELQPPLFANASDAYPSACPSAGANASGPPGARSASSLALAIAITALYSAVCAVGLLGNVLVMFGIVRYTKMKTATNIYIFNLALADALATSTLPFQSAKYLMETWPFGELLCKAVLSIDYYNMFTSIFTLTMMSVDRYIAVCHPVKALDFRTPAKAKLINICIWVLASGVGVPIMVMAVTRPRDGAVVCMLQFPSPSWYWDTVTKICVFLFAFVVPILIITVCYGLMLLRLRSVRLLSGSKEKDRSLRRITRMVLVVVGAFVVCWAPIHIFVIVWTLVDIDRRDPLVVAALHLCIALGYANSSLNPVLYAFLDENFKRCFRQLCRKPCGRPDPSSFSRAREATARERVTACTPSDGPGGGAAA
Source text: Scintillation Screening Assay for δ-Opioid Receptor Binding
This is a receptor based screen to detect the competitive binding of test compounds at the δ-opioid receptor against the radioligand, [^3H]bremazocine (S.A.=25.5 Cl/mmol, Dupont/NEN, Cambridge, Mass.). Unknown compounds that bind to the same receptor as the radioligand will compete for the receptor and reduce the amount of radioligand which binds to the receptor. This is detected as a decreased scintillation signal from that particular incubation. The greater affinity an unknown has for the receptor, the larger the observed decrease in […] to the receptor; thus the assay is in the format of an inhibition study.
The receptor is a cloned human cDNA expressed in mammalian CHO cells. Membranes prepared from these cells are purchased from Receptor Biology, Baltimore, Md. The reaction buffer is composed as follows: HEPES (50 mM final), MgCl.6H2O (5 mM final), o-phenanthroline (20 mg/l), aprotinin (10 mg/l), Pefabloc SC (250 mg/l), leupeptin (0.5 mg/l), pepstatin A (0.7 mg/l), trypsin inhibitor (25 mg/l), chymostatin (10 mg/l), pH=7.2. Naloxone, 10 uM, is used to define non-specific binding. The assay employs filtration to capture receptor and bound ligand.
The receptor (membrane) preparation (28 ug protein) is allowed to incubate with the opioid receptor radioligand ([^3H]bremazocine, 2.4 nM) in 96-well plates until equilibrium is reached (>2 hr). Following incubation with the radioligand at 23° C., the well contents are filtered onto 96-well Whatman GF/C filter plates using a Packard cell harvester. Radioligand bound to the receptor also remains on the filter. The filters are rinsed three times with 0.5 mL of physiological saline (0.9% NaCl) to remove any unbound radioligand from the filter. Filters are dried and scintillation fluid is then added to the filters which emits light in proportion to the amount of radioactivity on the filter which is determined using an Packard Topcount scintillation counter. Data are reported as percent inhibition of control binding.

μ-opioid receptor = μ-opioid receptor (Rattus norvegicus, UniProt P33535); assay: Rat brain μ-opioid receptor binding assay ([3H]DAMGO)
Chain of μ-opioid receptor (P33535 whole entry): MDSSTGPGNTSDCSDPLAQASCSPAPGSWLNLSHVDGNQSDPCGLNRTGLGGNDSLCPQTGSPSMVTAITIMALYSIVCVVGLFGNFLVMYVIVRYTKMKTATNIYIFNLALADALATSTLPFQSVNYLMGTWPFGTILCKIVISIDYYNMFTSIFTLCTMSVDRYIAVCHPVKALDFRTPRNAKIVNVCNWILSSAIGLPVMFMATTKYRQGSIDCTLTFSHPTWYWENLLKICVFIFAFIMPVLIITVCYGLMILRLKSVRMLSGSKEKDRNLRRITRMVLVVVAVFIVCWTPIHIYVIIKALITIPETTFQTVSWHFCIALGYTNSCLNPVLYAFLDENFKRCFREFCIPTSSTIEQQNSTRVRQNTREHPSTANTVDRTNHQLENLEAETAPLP

δ-opioid receptor [3] = biological target: δ-opioid receptor (Rattus norvegicus, UniProt P33533); assay: Rat brain δ-opioid receptor binding assay ([3H]DPDPE)
Chain of δ-opioid receptor (Rattus norvegicus, UniProt P33533) (P33533 whole entry): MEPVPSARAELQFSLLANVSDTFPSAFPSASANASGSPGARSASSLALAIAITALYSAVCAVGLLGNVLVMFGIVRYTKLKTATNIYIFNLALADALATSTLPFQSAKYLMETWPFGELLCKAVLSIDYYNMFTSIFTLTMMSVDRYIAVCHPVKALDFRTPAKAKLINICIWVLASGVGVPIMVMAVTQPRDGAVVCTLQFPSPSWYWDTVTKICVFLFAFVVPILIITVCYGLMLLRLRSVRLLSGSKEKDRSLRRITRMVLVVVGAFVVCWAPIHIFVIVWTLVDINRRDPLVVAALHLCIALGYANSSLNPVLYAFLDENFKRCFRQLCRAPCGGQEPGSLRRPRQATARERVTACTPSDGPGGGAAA

Work on `CCN1CCN(C(=Nc2ccccc2Cl)c2ccc(C(=O)N(CC)CC)cc2)CC1` [Compound 6, 4-[[(2-chlorophenyl)imino](4-ethyl-1-piperazinyl)methyl]-N,N-diethyl-benzamide] yielded an inhibition in vivo at 150 µmol/kg [1] of 20%, an inhibition at 25 µM (δ-opioid receptor [2]) of 103% and a Ki (μ-opioid receptor) of over 10 µM. The Ki (δ-opioid receptor [3]) was 0.0911 µM.
